Measured values: US12053547B2, “Liposomal compositions and methods of use” (Alastin Skincare, Inc., priority 2018, dated 2024)

Experiment: log Kow (penetration ability) of test molecules
Format: physicochemical
Procedure: A water suspension of liposomes was prepared with 1.5% of hydrophilic molecule A or 300 ppm (0.03%) hydrophilic molecule B, and 27% Pro-Lipo™ Neo. […] Molecule B was a hexapeptide (hexapeptide-38) with a molecular weight of (870 g/mol) and a penetration ability log Kow of −1.13. A water solution with 1.5% A or 300 ppm B was used as a control (non-entrapped molecule).

| Compound | penetration ability log Kow |
| --- | --- |
| hexapeptide-38 [Molecule B] | −1.13 |
| Cn1c(=O)c2c(ncn2C)n(C)c1=O [Molecule A, caffeine] | −0.07 |
